Assays:
Format in all cases: in vivo
kochia (Kochia scoparia) = assay: Test C preemergence, plant response rating
[1] = test system: nutsedge, yellow (yellow nutsedge, Cyperus esculentus); assay: Test C postemergence, plant response rating; details: for Nutsedge, Yellow plant response rating: scale 0 to 100 (0 no effect, 100 complete control)
Procedure, shortened: (§1)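 After sowing in loam–sand blend or silt loam, pots were sprayed preemergence; separately grown 1- to 4-leaf plants were sprayed postemergence. Following 13 to 15 d under greenhouse conditions, injury was rated visually on a 0 to 100 scale.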

[2] = test system: oilseed rape (Brassica napus); assay: Test C postemergence, plant response rating; details: for Oilseed Rape plant response rating: scale 0 to 100 (0 no effect, 100 complete control)
Procedure, shortened: as §1

[3] = test system: blackgrass (Alopecurus myosuroides); assay: Test C postemergence, plant response rating; details: for Plant response rating, Blackgrass: scale 0 to 100; for Blackgrass plant response rating: scale 0 to 100 (0 no effect, 100 complete control)
Procedure, shortened: as §1

corn (Zea mays) = assay: Test C postemergence, plant response rating; details: for Corn plant response rating: scale 0 to 100 (0 no effect, 100 complete control)
Procedure, shortened: as §1

[4] = test system: crabgrass, large (large crabgrass, Digitaria sanguinalis); assay: Test C postemergence, plant response rating; details: for Crabgrass, Large plant response rating: scale 0 to 100 (0 no effect, 100 complete control)
Procedure, shortened: as §1

[5] = test system: ragweed (common ragweed, Ambrosia elatior); assay: Test C postemergence, plant response rating; details: for Ragweed plant response rating: scale 0 to 100 (0 no effect, 100 complete control)
Procedure, shortened: as §1

[6] = test system: oat, wild (wild oat Avena fatua); assay: Test C postemergence, plant response rating; details: for Oat, Wild plant response rating: scale 0 to 100 (0 no effect, 100 complete control)
Procedure, shortened: as §1

[7] = test system: waterhemp (common waterhemp, Amaranthus rudis); assay: Test C postemergence, plant response rating
Procedure, shortened: as §1

[8] = test system: lambsquarters (Chenopodium album); assay: Test C postemergence, plant response rating; details: for Lambsquarters plant response rating: scale 0 to 100 (0 no effect, 100 complete control)
Procedure, shortened: as §1

soybean (Glycine max) = assay: Test C postemergence, plant response rating; details: for Soybean plant response rating: scale 0 to 100 (0 no effect, 100 complete control)
Procedure, shortened: as §1

[9] = test system: ryegrass, Italian (Italian ryegrass, Lolium multiflorum); assay: Test C postemergence, plant response rating; details: for Ryegrass, Italian plant response rating: scale 0 to 100 (0 no effect, 100 complete control)
Procedure, shortened: as §1

[10] = test system: galium (catchweed bedstraw, Galium aparine); assay: Test C postemergence, plant response rating; details: for Galium plant response rating: scale 0 to 100 (0 no effect, 100 complete control)
Procedure, shortened: as §1

[11] = test system: foxtail, giant (giant foxtail, Setaria faberii); assay: Test C postemergence, plant response rating; details: for Foxtail, Giant plant response rating: scale 0 to 100 (0 no effect, 100 complete control)
Procedure, shortened: as §1

[12] = test system: velvetleaf (Abutilon theophrasti); assay: Test C postemergence, plant response rating
Procedure, shortened: as §1

[13] = test system: wheat (winter wheat, Triticum aestivum); assay: Test C postemergence, plant response rating
Procedure, shortened: as §1

[14] = test system: oat, wild (wild oat Avena fatua); assay: Test C preemergence, plant response rating
[15] = test system: surinam grass (Brachiaria decumbens); assay: Test C preemergence, plant response rating
[16] = test system: galium (catchweed bedstraw, Galium aparine); assay: Test C preemergence, plant response rating
[17] = 125 g ai/ha, scale 0 to 100 (0 no effect, 100 complete control)

N#Cc1cccc(Oc2ncc(Cl)cn2)c1COCCC(F)(F)F [Compound 80]
Plant response rating, Kochia (kochia (Kochia scoparia); 31 g ai/ha, scale 0 to 100): 95 | Plant response rating, Kochia (kochia (Kochia scoparia); 62 g ai/ha, scale 0 to 100): 100 | Plant response rating, Kochia (kochia (Kochia scoparia); 125 g ai/ha, scale of 0 to 100): 100 | Plant response rating, Nutsedge, Yellow ([1]; 16 g ai/ha, scale of 0 to 100): 0 | Plant response rating, Nutsedge, Yellow ([1]; 31 g ai/ha, scale 0 to 100): 0 | Nutsedge, Yellow plant response rating ([1]; 62 g ai/ha): 5 | Nutsedge, Yellow plant response rating ([1]; 125 g ai/ha): 5 | Plant response rating, Oilseed Rape ([2]; 16 g ai/ha, scale of 0 to 100): 50 | Plant response rating, Oilseed Rape ([2]; 31 g ai/ha, scale 0 to 100): 60 | Oilseed Rape plant response rating ([2]; 62 g ai/ha): 65 | Oilseed Rape plant response rating ([2]; 125 g ai/ha): 70 | Plant response rating, Blackgrass ([3]; 16 g ai/ha): 0 | Plant response rating, Blackgrass ([3]; 31 g ai/ha): 5 | Blackgrass plant response rating ([3]; 62 g ai/ha): 5 | Blackgrass plant response rating ([3]; 125 g ai/ha): 25 | Plant response rating, Corn (corn (Zea mays); 16 g ai/ha, scale of 0 to 100): 15 | Plant response rating, Corn (corn (Zea mays); 31 g ai/ha, scale 0 to 100): 10 | Corn plant response rating (corn (Zea mays); 62 g ai/ha): 15 | Corn plant response rating (corn (Zea mays); 125 g ai/ha): 25 | Plant response rating, Crabgrass, Large ([4]; 16 g ai/ha, scale of 0 to 100): 10 | Plant response rating, Crabgrass, Large ([4]; 31 g ai/ha, scale 0 to 100): 15 | Crabgrass, Large plant response rating ([4]; 62 g ai/ha): 10 | Crabgrass, Large plant response rating ([4]; 125 g ai/ha): 30 | Plant response rating, Ragweed ([5]; 16 g ai/ha, scale of 0 to 100): 5 | Plant response rating, Ragweed ([5]; 31 g ai/ha, scale 0 to 100): 10 | Ragweed plant response rating ([5]; 62 g ai/ha): 15 | Ragweed plant response rating ([5]; 125 g ai/ha): 35 | Plant response rating, Oat, Wild ([6]; 16 g ai/ha, scale of 0 to 100): 0 | Plant response rating, Oat, Wild ([6]; 31 g ai/ha, scale 0 to 100): 0 | Oat, Wild plant response rating ([6]; 62 g ai/ha): 10 | Oat, Wild plant response rating ([6]; 125 g ai/ha): 5 | Plant response rating, Waterhemp ([7]; 16 g ai/ha, scale of 0 to 100): 80 | Plant response rating, Waterhemp ([7]; 31 g ai/ha, scale 0 to 100): 80 | Waterhemp plant response rating [7, 17]: 90 | Plant response rating, Lambsquarters ([8]; 16 g ai/ha, scale of 0 to 100): 50 | Plant response rating, Lambsquarters ([8]; 31 g ai/ha, scale 0 to 100): 75 | Lambsquarters plant response rating ([8]; 62 g ai/ha): 80 | Lambsquarters plant response rating ([8]; 125 g ai/ha): 85 | Plant response rating, Soybean (soybean (Glycine max); 16 g ai/ha, scale of 0 to 100): 60 | Plant response rating, Soybean (soybean (Glycine max); 31 g ai/ha, scale 0 to 100): 75 | Soybean plant response rating (soybean (Glycine max); 62 g ai/ha): 90 | Soybean plant response rating (soybean (Glycine max); 125 g ai/ha): 95 | Plant response rating, Ryegrass, Italian ([9]; 16 g ai/ha, scale of 0 to 100): 0 | Plant response rating, Ryegrass, Italian ([9]; 31 g ai/ha, scale 0 to 100): 0 | Ryegrass, Italian plant response rating ([9]; 62 g ai/ha): 5 | Ryegrass, Italian plant response rating ([9]; 125 g ai/ha): 5 | Plant response rating, Galium ([10]; 16 g ai/ha, scale of 0 to 100): 70 | Plant response rating, Galium ([10]; 31 g ai/ha, scale 0 to 100): 75 | Galium plant response rating ([10]; 62 g ai/ha): 85 | Galium plant response rating ([10]; 125 g ai/ha): 90 | Plant response rating, Foxtail, Giant ([11]; 16 g ai/ha, scale of 0 to 100): 5 | Plant response rating, Foxtail, Giant ([11]; 31 g ai/ha, scale 0 to 100): 10 | Foxtail, Giant plant response rating ([11]; 62 g ai/ha): 10 | Foxtail, Giant plant response rating ([11]; 125 g ai/ha): 15 | Plant response rating, Velvetleaf ([12]; 16 g ai/ha, scale of 0 to 100): 30 | Plant response rating, Velvetleaf ([12]; 31 g ai/ha, scale 0 to 100): 35 | Velvetleaf plant response rating [12, 17]: 55 | Plant response rating, Wheat ([13]; 16 g ai/ha, scale of 0 to 100): 0 | Plant response rating, Wheat ([13]; 31 g ai/ha, scale 0 to 100): 0 | Wheat plant response rating [13, 17]: 15 | Plant response rating, Oat, Wild ([14]; 31 g ai/ha, scale 0 to 100): 0 | Plant response rating, Oat, Wild ([14]; 62 g ai/ha, scale 0 to 100): 10 | Plant response rating, Oat, Wild ([14]; 125 g ai/ha, scale of 0 to 100): 30 | Plant response rating, Surinam Grass ([15]; 31 g ai/ha, scale 0 to 100): 50 | Plant response rating, Surinam Grass ([15]; 62 g ai/ha, scale 0 to 100): 60 | Plant response rating, Surinam Grass ([15]; 125 g ai/ha, scale of 0 to 100): 98 | Plant response rating, Galium ([16]; 31 g ai/ha, scale 0 to 100): 5 | Plant response rating, Galium ([16]; 62 g ai/ha, scale of 0 to 100): 75 | Plant response rating, Galium ([16]; 125 g ai/ha, scale of 0 to 100): 98

Source: patent publication US11053204B2, “Pyrimidinyloxy benzene derivatives as herbicides” (FMC Corporation, priority 2015, dated 2021)
